Measured values published in patent US8871753B2, “Macrocyclic compounds and their use as kinase inhibitors” (Incyte Corporation, priority 2008, dated 2014).
Where a name gives a salt, the structure may show the parent alone. Read-outs that look alike come from different tables or passages of the source.

Columns and labels:
Assay type in all cases: biochemical
[1] = target: T1, human JAK2 (a.a. 828-1132) (Homo sapiens, UniProt O60674); assay: In vitro JAK kinase assay (HTRF, phosphorylation of a biotinylated peptide), JAK2
T1 construct: JAK2 (a.a. 828-1132); His tag (N); made in house; host or cells: insect cells (baculovirus)
T1 sequence (O60674 828-1132): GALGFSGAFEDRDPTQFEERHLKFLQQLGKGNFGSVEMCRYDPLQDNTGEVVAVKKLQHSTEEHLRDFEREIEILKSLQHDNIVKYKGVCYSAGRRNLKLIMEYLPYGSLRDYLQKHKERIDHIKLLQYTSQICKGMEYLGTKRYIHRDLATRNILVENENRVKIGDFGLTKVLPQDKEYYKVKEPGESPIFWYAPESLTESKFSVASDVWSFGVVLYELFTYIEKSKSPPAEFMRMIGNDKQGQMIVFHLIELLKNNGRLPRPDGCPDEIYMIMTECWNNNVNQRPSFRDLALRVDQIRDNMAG
Procedure, shortened: (§1)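 Kinase reactions ran at room temperature for 1 h with ATP matched per isoform (JAK1 90 μM, JAK2 30 μM, JAK3 3 μM). After an EDTA stop, the phosphorylated biotin-peptide was read by HTRF using Eu-Py20 and SA-APC after 40 min binding.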

[2] = target: T2, human JAK1 (a.a. 837-1142) (Homo sapiens, UniProt P23458); assay: In vitro JAK kinase assay (HTRF, phosphorylation of a biotinylated peptide), JAK1; settings: read-out: JAK1 IC50
T2 construct: human JAK1 (a.a. 837-1142); His tag (N); made in house; host or cells: insect cells (baculovirus)
T2 sequence (P23458 849-1154): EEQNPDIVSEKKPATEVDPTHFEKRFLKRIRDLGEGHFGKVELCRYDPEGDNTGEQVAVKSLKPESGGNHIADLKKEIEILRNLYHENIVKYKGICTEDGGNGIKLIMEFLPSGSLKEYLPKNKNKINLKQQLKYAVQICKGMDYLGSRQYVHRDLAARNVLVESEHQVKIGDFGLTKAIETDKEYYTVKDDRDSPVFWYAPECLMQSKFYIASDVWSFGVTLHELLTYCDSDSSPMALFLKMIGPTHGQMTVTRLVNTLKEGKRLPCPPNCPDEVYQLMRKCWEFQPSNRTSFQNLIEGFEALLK
Procedure, shortened: as §1

TYK2 = TYK2 (Homo sapiens, UniProt P29597); assay: TYK2 kinase inhibition (Table A1)
TYK2, sequence (P29597 whole entry): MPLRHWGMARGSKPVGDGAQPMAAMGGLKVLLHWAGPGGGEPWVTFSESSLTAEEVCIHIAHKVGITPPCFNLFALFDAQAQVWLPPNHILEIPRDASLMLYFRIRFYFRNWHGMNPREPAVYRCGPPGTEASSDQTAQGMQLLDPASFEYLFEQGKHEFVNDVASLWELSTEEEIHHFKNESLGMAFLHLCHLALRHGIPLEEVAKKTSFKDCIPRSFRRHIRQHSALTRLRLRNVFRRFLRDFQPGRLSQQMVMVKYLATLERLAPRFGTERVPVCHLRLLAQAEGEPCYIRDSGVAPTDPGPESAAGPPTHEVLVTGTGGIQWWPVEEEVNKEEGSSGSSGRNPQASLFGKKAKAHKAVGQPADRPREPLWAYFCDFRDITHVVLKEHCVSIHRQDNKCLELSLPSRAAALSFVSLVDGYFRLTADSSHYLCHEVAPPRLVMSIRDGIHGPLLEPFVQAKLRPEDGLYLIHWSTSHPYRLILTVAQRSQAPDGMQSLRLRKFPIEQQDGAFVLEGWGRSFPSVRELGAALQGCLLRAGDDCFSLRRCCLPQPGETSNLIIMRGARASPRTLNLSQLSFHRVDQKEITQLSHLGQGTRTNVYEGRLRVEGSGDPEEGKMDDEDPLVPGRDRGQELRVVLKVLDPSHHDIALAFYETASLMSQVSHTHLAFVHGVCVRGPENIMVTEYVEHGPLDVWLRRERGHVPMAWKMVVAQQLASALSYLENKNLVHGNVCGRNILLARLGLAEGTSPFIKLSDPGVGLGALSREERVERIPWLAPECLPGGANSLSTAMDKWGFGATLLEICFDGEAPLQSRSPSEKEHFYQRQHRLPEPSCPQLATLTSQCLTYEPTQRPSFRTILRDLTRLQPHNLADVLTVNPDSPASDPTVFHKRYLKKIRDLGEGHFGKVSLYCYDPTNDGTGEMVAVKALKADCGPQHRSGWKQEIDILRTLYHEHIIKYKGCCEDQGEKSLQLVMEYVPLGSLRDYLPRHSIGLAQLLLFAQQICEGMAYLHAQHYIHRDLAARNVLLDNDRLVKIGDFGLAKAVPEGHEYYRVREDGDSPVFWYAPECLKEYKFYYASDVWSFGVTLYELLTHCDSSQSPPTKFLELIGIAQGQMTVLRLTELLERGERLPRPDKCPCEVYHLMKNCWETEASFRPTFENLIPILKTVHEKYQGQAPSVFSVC

[3] = target: T3, human JAK3 (a.a. 781-1124) (Homo sapiens, UniProt P52333); assay: In vitro JAK kinase assay (HTRF, phosphorylation of a biotinylated peptide), JAK3
T3 construct: JAK3 (a.a. 781-1124); His tag (N); made in house; host or cells: insect cells (baculovirus)
T3 sequence (P52333 781-1124): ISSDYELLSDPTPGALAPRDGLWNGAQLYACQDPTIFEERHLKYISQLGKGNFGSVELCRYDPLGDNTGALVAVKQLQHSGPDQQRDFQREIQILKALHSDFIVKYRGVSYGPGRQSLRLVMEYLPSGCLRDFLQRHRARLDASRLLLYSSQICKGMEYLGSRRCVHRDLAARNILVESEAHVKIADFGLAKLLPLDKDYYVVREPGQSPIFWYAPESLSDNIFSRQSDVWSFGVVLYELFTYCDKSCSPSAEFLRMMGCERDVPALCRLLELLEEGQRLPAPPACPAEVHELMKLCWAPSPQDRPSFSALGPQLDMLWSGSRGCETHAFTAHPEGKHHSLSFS
Experimental: The catalytic activity of JAK1, JAK2 or JAK3 was assayed by measuring the phosphorylation of a biotinylated peptide. The phosphorylated peptide was detected by homogenous time resolved fluorescence (HTRF). […] The ATP concentration in the reactions was 90 μM for JAK1, 30 μM for JAK2 and 3 μM for JAK3. Reactions were carried out at room temperature for 1 hr and then stopped with 20 μL 45 mM EDTA, 300 nM SA-APC, 6 nM Eu-Py20 in assay buffer (Perkin Elmer, Boston, Mass.). Binding to the Europium labeled antibody took place for 40 minutes and HTRF signal was measured on a Fusion plate reader (Perkin Elmer, Boston, Mass.).
The catalytic activity of JAK1, JAK2 or JAK3 was assayed by measuring the phosphorylation of a biotinylated peptide. The phosphorylated peptide was detected by homogenous time resolved fluorescence (HTRF). […] Reactions were carried out at room temperature for 1 hr and then stopped with 20 μL 45 mM EDTA, 300 nM SA-APC, 6 nM Eu-Py20 in assay buffer (Perkin Elmer, Boston, Mass.). Binding to the Europium labeled antibody took place for 40 minutes and HTRF signal was measured on a Fusion plate reader (Perkin Elmer, Boston, Mass.).

[4] = method AA1 (30 μM ATP) or AA2 (1000 μM ATP), not stated per value
[5] = method AA1 (90 μM ATP) or AA2 (1000 μM ATP), not stated per value
[6] = method AA1 (3 μM ATP) or AA2 (1000 μM ATP), not stated per value

SMILES	IC50 (TYK2)	IC50 [1]	IC50 [2]	IC50 [3]	other results
COc1ccc2cc1Nc1nc(ncc1Cl)Nc1cccc(c1)CC2 [Example A25, 6-Chloro-10-methoxy-2,4,8,22-tetraazatetracyclo[14.3.1.1(3,7).1(9,13)]docosa-1(20),3(22),4,6,9(21),10,12,16,18-nonaene trifluoroacetate]	122 nM	–	–	–	IC50 [1, 4]: 21 nM; IC50 [2, 5]: 38 nM; IC50 [3, 6]: 14 nM
N#Cc1ccc(NC(=O)N2CCC(C(=O)Nc3ccc4cc3CCc3cccc(c3)Nc3ncc(Cl)c(n3)N4)CC2)cc1 [Example A37, N(4)-[6-Chloro-2,4,8,22-tetraazatetracyclo[14.3.1.1(3,7).1(9,13)]docosa-1(20),3(22),4,6,9(21),10,12,16,18-nonaen-12-yl]-N(1)-(4-cyanophenyl)piperidine-1,4-dicarboxamide trifluoroacetate]	21 nM	–	–	–	IC50 [1, 4]: 11 nM; IC50 [2, 5]: 9 nM; IC50 [3, 6]: 24 nM
O=C(Nc1ccc2cc1CCc1cccc(c1)Nc1ncc(Cl)c(n1)N2)C1CCN(C(=O)Nc2ccc(Cl)nc2)CC1 [Example A40, N(1)-(6-Chloropyridin-3-yl)-N(4)-[6-chloro-2,4,8,22-tetraazatetracyclo[14.3.1.1(3,7).1(9,13)]docosa-1(20),3(22),4,6,9(21),10,12,16,18-nonaen-12-yl]piperidine-1,4-dicarboxamide bis(trifluoroacetate)]	18 nM	–	–	–	IC50 [1, 4]: 15 nM; IC50 [2, 5]: 16 nM; IC50 [3, 6]: 30 nM
O=C(CC1CCN(c2nc3cccnc3o2)CC1)Nc1ccc2cc1CCc1cccc(c1)Nc1ncc(Cl)c(n1)N2 [Example A126, N-[6-Chloro-2,4,8,22-tetraazatetracyclo[14.3.1.1(3,7).1(9,13)]docosa-1(20),3(22),4,6,9(21),10,12,16,18-nonaen-12-yl]-2-(1-[1,3]oxazolo[5,4-b]pyridin-2-ylpiperidin-4-yl)acetamide bis(trifluoroacetate)]	7.5 nM	–	–	–	IC50 [1, 4]: 2.6 nM; IC50 [2, 5]: 0.5 nM; IC50 [3, 6]: 34 nM
O=C(Nc1ccc2cc1CCc1cccc(c1)Nc1ncc(Cl)c(n1)N2)c1nc2ccccc2s1 [Example B74, N-[6-Chloro-2,4,8,22-tetraazatetracyclo[14.3.1.1(3,7).1(9,13)]docosa-1(20), 3(22),4,6,9(21),10,12,16,18-nonaen-12-yl]-1,3-benzothiazole-2-carboxamide trifluoroacetate]	–	–	–	–	IC50 ([2]; Table B1): > 1000 nM; IC50 (TYK2; Table B1): > 1000 nM; IC50 ([3]; Table B1): > 1000 nM
O=C(Nc1ccc2cc1CCc1cccc(c1)Nc1ncc(Cl)c(n1)N2)N1CCCC1 [Example B81, N-[6-Chloro-2,4,8,22-tetraazatetracyclo[14.3.1.1(3,7).1(9,13)]docosa-1(20), 3(22),4,6,9(21),10,12,16,18-nonaen-12-yl]pyrrolidine-1-carboxamide trifluoroacetate]	–	–	–	–	IC50 ([1]; Table B1): 123 nM; IC50 ([2]; Table B1): 109 nM; IC50 (TYK2; Table B1): 221 nM; IC50 ([3]; Table B1): 475 nM
O=C(NCc1ccco1)Nc1ccc2cc1CCc1cncc(c1)Nc1ncc(Cl)c(n1)N2 [Example B134, N-[6-Chloro-2,4,8,18,22-pentaazatetracyclo[14.3.1.1(3,7).1(9,13)]docosa-1(20),3(22),4,6,9(21),10,12,16,18-nonaen-12-yl]-N′-(2-furylmethyl)urea bis(trifluoroacetate)]	–	–	–	–	IC50 ([1]; Table B1): 1.7 nM; IC50 ([2]; Table B1): 0.75 nM; IC50 (TYK2; Table B1): 2.8 nM; IC50 ([3]; Table B1): 23 nM
Cc1nc(S(=O)(=O)Nc2ccc3cc2CCc2cccc(c2)Nc2ncc(Cl)c(n2)N3)cn1C [Example B151, N-[6-Chloro-2,4,8,22-tetraazatetracyclo[14.3.1.1(3,7).1(9,13)]docosa-1(20),3(22),4,6,9(21),10,12,16,18-nonaen-12-yl]-1,2-dimethyl-1H-imidazole-4-sulfonamide bis(trifluoroacetate)]	–	–	–	–	IC50 ([1]; Table B1): 1.2 nM; IC50 ([2]; Table B1): 2.9 nM; IC50 (TYK2; Table B1): 1.4 nM; IC50 ([3]; Table B1): 36 nM
O=C(Nc1cc2cc(c1)Nc1nc(ncc1Cl)Nc1cccc(c1)CC2)C1CCC1 [Example B211, N-[6-Chloro-2,4,8,22-tetraazatetracyclo[14.3.1.1(3,7).1(9,13)]docosa-1(20),3(22),4,6,9(21),10,12,16,18-nonaen-11-yl]cyclobutanecarboxamide trifluoroacetate]	–	–	–	–	IC50 ([1]; Table B1): 20 nM; IC50 ([2]; Table B1): 56 nM; IC50 (TYK2; Table B1): 191 nM; IC50 ([3]; Table B1): 135 nM
O=C(c1ccccc1)N1Cc2cccc(c2)Nc2ncc(Cl)c(n2)Nc2cccc1c2 [Example C22, 14-Benzoyl-6-chloro-2,4,8,14,22-pentaazatetracyclo[14.3.1.1(3,7).1(9,13)]docosa-1(20),3(22),4,6,9(21),10,12,16,18-nonaene]	88 nM	32 nM	24 nM	> 400 nM	–
O=C(c1ccccn1)N1Cc2cccc(c2)Nc2ncc(Cl)c(n2)Nc2cccc1c2 [Example C23, 6-Chloro-14-(pyridin-2-ylcarbonyl)-2,4,8,14,22-pentaazatetracyclo[14.3.1.1(3,7).1(9,13)]docosa-1(20),3(22),4,6,9(21),10,12,16,18-nonaene]	1140 nM	281 nM	162 nM	> 10000 nM	–
Cc1ccc(C(=O)N2Cc3cccc(c3)Nc3ncc(Cl)c(n3)Nc3cccc2c3)cc1 [Example C24, 6-Chloro-14-(4-methylbenzoyl)-2,4,8,14,22-pentaazatetracyclo[14.3.1.1(3,7).1(9,13)]docosa-1(20),3(22),4,6,9(21),10,12,16,18-nonaene]	1030 nM	154 nM	95 nM	1200 nM	–
O=C(c1cccs1)N1Cc2cccc(c2)Nc2ncc(Cl)c(n2)Nc2cccc1c2 [Example C25, 6-Chloro-14-(2-thienylcarbonyl)-2,4,8,14,22-pentaazatetracyclo[14.3.1.1(3,7).1(9,13)]docosa-1(20),3(22),4,6,9(21),10,12,16,18-nonaene]	793 nM	173 nM	91 nM	> 10000 nM	–
CCCC(=O)N1Cc2cccc(c2)Nc2ncc(Cl)c(n2)Nc2cccc1c2 [Example C26, 14-Butyryl-6-chloro-2,4,8,14,22-pentaazatetracyclo[14.3.1.1(3,7).1(9,13)]docosa-1(20),3(22),4,6,9(21),10,12,16,18-nonaene]	1420 nM	357 nM	228 nM	> 10000 nM	–
O=C(c1cccnc1)N1Cc2cccc(c2)Nc2ncc(Cl)c(n2)Nc2cccc1c2 [Example C27, 6-Chloro-14-(pyridin-3-ylcarbonyl)-2,4,8,14,22-pentaazatetracyclo[14.3.1.1(3,7).1(9,13)]docosa-1(20),3(22),4,6,9(21),10,12,16,18-nonaene]	501 nM	59 nM	43 nM	1290 nM	–
COC(=O)c1ccc2cc1CCc1cncc(c1)Nc1ncc(Cl)c(n1)N2 [Example C28, Methyl 6-chloro-2,4,8,18,22-pentaazatetracyclo[14.3.1.1(3,7).1(9,13)]docosa-1(20),3(22),4,6,9(21),10,12,16,18-nonaene-12-carboxylate]	> 200 nM	100 nM	120 nM	> 200 nM	–
O=C(Cc1c[nH]c2ccccc12)Nc1ccc2cc1CCc1cccc(c1)Nc1ncc(Cl)c(n1)N2 [Example C29, N-[6-Chloro-2,4,8,22-tetraazatetracyclo[14.3.1.1(3,7).1(9,13)]docosa-1(20),3(22),4,6,9(21),10,12,16,18-nonaen-12-yl]-2-(1H-indol-3-yl)acetamide bis(trifluoroacetate)]	227 nM	68 nM	43 nM	1030 nM	–
O=C(C[C@H]1CCCN(c2nc3cccnc3o2)C1)Nc1ccc2cc1CCc1cncc(c1)Nc1ncc(Cl)c(n1)N2 [Example D214, N-[6-Chloro-2,4,8,18,22-pentaazatetracyclo[14.3.1.1(3,7).1(9,13)]docosa-1(20),3(22),4,6,9(21),10,12,16,18-nonaen-12-yl]-2-[(3R)-1-[1,3]oxazolo[5,4-b]pyridin-2-ylpiperidin-3-yl]acetamide tris(trifluoroacetate)]	–	–	–	–	IC50 ([1]; Table D1): > 1000 nM; IC50 ([2]; Table D1): 12 nM
c1cc2cc(c1)Nc1ccnc(n1)Nc1cncc(c1)CC2 [Example D217, 2,4,8,18,22-Pentaazatetracyclo[14.3.1.1(3,7).1(9,13)]docosa-1(20),3(22),4,6,9(21),10,12,16,18-nonaene bis(trifluoroacetate)]	–	–	–	–	IC50 ([1]; Table D1): 103 nM; IC50 ([2]; Table D1): 53 nM; IC50 ([3]; Table D1): > 400 nM
